Experimental data as given in paper PMC6272242, “Topical Anti-inflammatory Activity of New Hybrid Molecules of Terpenes and Synthetic Drugs” (Molecules, 2015).

Experiments:
[1] = tested on: mice ear edema induced by arachidonic acid; assay: Topical anti-inflammatory effect, arachidonic acid (AA) induced ear edema in mice; type: in vivo; conditions: 3.2 µmol/mouse; for inhibition in vivo at 3.2 µmol/animal: 1 h after AA, n = 8, read-out: % TAAA ± SEM (percent reduction of the ear edema, arachidonic acid)
Protocol: (§1) The inflammatory agent arachidonic acid (AA) and phorbol 12-myristate 13-acetate (TPA) were used to assess the anti-inflammatory effect/action mechanism of the starting compounds, new synthetic products and reference drugs. […] Adult male CF-1 mice (20–25 g), obtained from a stock maintained at the Chilean Public Health Institute, were used to assess the anti-inflammatory effect. All animals were housed in a climate- and light-controlled room with a 12 h light-dark cycle, fasted overnight before the day of the assays, with free access to water. The anti-inflammatory activity of each compound was evaluated in groups of 8 treated and 16 control mice. Due to ethical considerations, the number of animals was kept to a minimum and single dose experiments were carried out.
(§2) The pro-inflammatory agents TPA and AA, the reference drugs indomethacin and nimesulide were from Sigma. […] After 5 min, inflammation was induced by the application of 20 µL TPA or AA (5 mg/mL) in acetone. […] Control subjects only received TPA or AA. Both, the sample and the TPA or AA, were applied to the inner (10 µL) and outer (10 µL) surfaces of the right ear. The left ear only received acetone. Mice were sacrificed by cervical dislocation (after 6 h of TPA and 1 h AA), and a 6 mm diameter section of the right and left ears were cut and weighed. The weight differences between both ear sections correspond to the edema value. The percent topical anti-inflammatory activity (TA) was evaluated according to the following equation: (1) %TA=[ Wc−Ws/Wc]× 100 where Wc and Ws are the different median values of the weights of the right and the left ear sections of the control and the treated animals, respectively.
(§3) For the animal experiments all values are presented as median ± SEM. Drug-induced changes were statistically estimated using the Kruskall-Wallis test for comparison between groups and testing, and the Mann-Whitney test was used in the independent data for individual comparisons. The effects were considered significant if p ≤ 0.05. For cytotoxicity experiments, each concentration was tested in quadruplicate together with the control and repeated three times in different experiments. Results are expressed as IC50 values (µM) ± S.D.

[2] = tested on: xylene-induced ear edema; parameters: method as in PMID 16806590; conditions: mice; cited from earlier work
[3] = tested on: gastric epithelial cells (AGS); assay: Cytotoxicity, MTT reduction assay, AGS; type: cell-based; conditions: Homo sapiens, Epithelial cell, confluent cultures, 24 h, read-out: IC50 ± SD, AGS
Protocol: (§4) The human cell lines, MRC-5 normal lung fibroblasts (CCL-171), AGS gastric epithelial adenocarcinoma cells (CRL-1739) and HepG2 hepatocellular carcinoma cells (HB-8065) were obtained from the American Type Culture Collection (ATCC, Manasas, VA, USA). The cells were grown as monolayers in the following media: MRC-5 and HepG2 in MEM and AGS in Ham F-12. The MEM medium contained 2 mM L-glutamine, 1 mM sodium pyruvate and 1.5 g/L sodium bicarbonate. Ham F-12 was supplemented with 2 mM L-glutamine and 1.5 g/L sodium bicarbonate. Both media were supplemented with 10% heat inactivated fetal bovine serum, 100 IU/mL penicillin and 100 µg/mL streptomycin in a humidified incubator with 5% CO2 in air at 37 °C. For the experiments, cells were plated at a density of 25,000 cells/mL in 96-well plates. […] Compounds were first dissolved in DMSO and then in medium. The final concentration of DMSO in the test medium and controls was 1%. […] The cell viability for each compound was calculated comparing the cell viability of the untreated controls (100%) with the cell viability of the different concentrations of each compound. Each concentration was tested in quadruplicate together with the control and repeated three times in separate experiments. Cell viability was determined at the end of the incubation by means of the MTT reduction assay. Results were converted to percentage of controls, and the IC50 values were graphically obtained from the dose-response curves. Culture media, antibiotics and fetal bovine serum were obtained from Invitrogen Corp. (Waltham, MA, USA). Other reagents were purchased from Sigma Chemical Co. For the animal experiments all values are presented as median ± SEM. Drug-induced changes were statistically estimated using the Kruskall-Wallis test for comparison between groups and testing, and the Mann-Whitney test was used in the independent data for individual comparisons. The effects were considered significant if p ≤ 0.05. For cytotoxicity experiments, each concentration was tested in quadruplicate together with the control and repeated three times in different experiments. Results are expressed as IC50 values (µM) ± S.D.

[4] = tested on: human lung fibroblasts (MRC-5), gastric epithelial cells (AGS) and hepatocytes HepG2; assay: Cytotoxicity, MTT reduction assay, summary over the three cell lines; type: cell-based; conditions: Homo sapiens; MRC-5, AGS and HepG2, 24 h, MTT; read-out: IC50 values, range over the three cell lines
Protocol: as §4

[5] = tested on: hepatocytes HepG2; assay: Cytotoxicity, MTT reduction assay, HepG2; type: cell-based; conditions: Homo sapiens, confluent cultures, 24 h, read-out: IC50 ± SD, HepG2
Protocol: as §4, with “Results were converted to percentage of controls, and the IC50 values were graphically obtained from the dose-response curves.” left out

[6] = tested on: lung fibroblasts (MRC-5); assay: Cytotoxicity, MTT reduction assay, MRC-5; type: cell-based; conditions: Homo sapiens, MRC5, confluent cultures, 24 h, read-out: IC50 ± SD, MRC-5
Protocol: as §4

[7] = tested on: acetic acid-induced writhing; parameters: method as in PMID 12767601; conditions: oral administration, ibuprofen at 40 mg/kg; cited from earlier work
[8] = tested on: mice ear edema induced by 12-O-tetradecanoylphorbol 13-acetate; assay: Topical anti-inflammatory effect, 12-O-tetradecanoylphorbol 13-acetate (TPA) induced ear edema in mice; type: in vivo; conditions: 1.4 µmol/mouse, 6 h after TPA, n = 8, read-out: % TATPA ± SEM (percent reduction of the ear edema, TPA)
Protocol: as §1, §2, §3

Compound: CC(C)Cc1ccc(C(C)C(=O)O)cc1 (stereo not shown) [Compound 4, ibuprofen, reference compound]
- Activity in the AA model, in words [1]: inactive
- inhibition in vivo at 3.2 µmol/animal [1]: 7.2 ± 5.5%
- Reduction of xylene-induced ear edema [2]: 45.9%
- IC50 [3]: > 1000 µM
- IC50 [4]: > 1000 µM
- IC50 [5]: > 1000 µM
- IC50 [6]: > 1000 µM
- Reduction of stretches [7]: 77.6%
- inhibition in vivo at 1.4 µmol/animal [8]: 56.2 ± 3.4%

Compound: COc1ccc2cc([C@H](C)C(=O)Oc3cc4c(cc3C(C)C)CCC3C(C)(C)CCC[C@]43C)ccc2c1 (stereo partly shown) [Compound 7, Ferruginyl naproxenate]
- inhibition in vivo at 3.2 µmol/animal [1]: 26.6 ± 4.1%
- IC50 [3]: 874 ± 49 µM
- IC50 [4]: ≥ 874 µM
- IC50 [5]: > 1000 µM
- IC50 [6]: 945 ± 56 µM
- inhibition in vivo at 1.4 µmol/animal [8]: 26.8 ± 3.8%

Compound: C=C1CCC2[C@](C)(CCC[C@]2(C)C(=O)O)[C@H]1CC[C@@H](C)CCOC(=O)[C@@H](C)c1ccc2cc(OC)ccc2c1 (stereo partly shown) [Compound 10, Imbricatol-15-yl naproxenate]
- inhibition in vivo at 3.2 µmol/animal [1]: 16.3 ± 3.8%
- IC50 [3]: 29 ± 2 µM
- IC50 [4]: 29 to 69 µM
- IC50 [5]: 69 ± 4 µM
- IC50 [6]: 37 ± 2 µM
- inhibition in vivo at 1.4 µmol/animal [8]: 37.7 ± 3.3%

Compound: C=C1CCC2[C@](C)(CCC[C@]2(C)C(=O)OC)[C@H]1CC[C@@H](C)CCOC(=O)[C@@H](C)c1ccc2cc(OC)ccc2c1 (stereo partly shown) [Compound 11, Imbricatol-15-yl naproxenate methyl ester]
- inhibition in vivo at 3.2 µmol/animal [1]: 20 ± 9.4%
- IC50 [3]: 601 ± 25 µM
- IC50 [4]: ≥ 601 µM
- IC50 [5]: > 1000 µM
- IC50 [6]: 907 ± 54 µM
- inhibition in vivo at 1.4 µmol/animal [8]: 42.7 ± 8.3%

Compound: ibuprofen propyl glucopyranoside ester
- Reduction of xylene-induced ear edema [2]: 52.7%
